Measured values taken from publication PMC9000570, “Thiazole/Thiadiazole/Benzothiazole Based Thiazolidin-4-One Derivatives as Potential Inhibitors of Main Protease of SARS-CoV-2” (Molecules, 2022).

System: human normal MRC-5 cells
Assay: MTT cell viability assay
Format: cell-based
Settings: MRC-5, 0.01 μM, 48 h

| Compound | inhibition of cellular viability [%] |
| --- | --- |
| O=C1CSC(c2c(F)cccc2Cl)N1c1nc2cccc(Cl)c2s1 (stereo not drawn) [a2] | 68.5 |
| O=C1CSC(c2ccc(F)cc2)N1c1nc2ccc(Cl)cc2s1 (stereo not drawn) [c1] | 31.0 |
| N#Cc1ccc2nc(N3C(=O)CSC3c3c(F)cccc3Cl)sc2c1 (stereo not drawn) [k3] | 57 |
| O=C1CSC(c2ccc(Br)cc2)N1c1nc2ccc(C34CC5CC(CC(C5)C3)C4)cc2s1 (stereo not drawn) [m11, 3-(6-(adamantan-1-yl)benzo[d]thiazol-2-yl)-2-(4-bromophenyl)thiazolidin-4-one] | 65.0 |
| Cc1cc(C23CC4CC(CC(C4)C2)C3)cc2sc(N3C(=O)CSC3c3c(F)cccc3F)nc12 (stereo not drawn) [n2] | 20.8 |

Same assay, conditions: MRC-5, 0.1 μM, 48 h

| Compound | inhibition of cellular viability |
| --- | --- |
| O=C1CSC(c2c(F)cccc2Cl)N1c1nc2cccc(Cl)c2s1 (stereo not drawn) [a2] | 78.4% |
| O=C1CSC(c2ccc(F)cc2)N1c1nc2ccc(Cl)cc2s1 (stereo not drawn) [c1] | 43,0% |
| N#Cc1ccc2nc(N3C(=O)CSC3c3c(F)cccc3Cl)sc2c1 (stereo not drawn) [k3] | 64% |
| O=C1CSC(c2ccc(Br)cc2)N1c1nc2ccc(C34CC5CC(CC(C5)C3)C4)cc2s1 (stereo not drawn) [m11, 3-(6-(adamantan-1-yl)benzo[d]thiazol-2-yl)-2-(4-bromophenyl)thiazolidin-4-one] | 81.3% |
| Cc1cc(C23CC4CC(CC(C4)C2)C3)cc2sc(N3C(=O)CSC3c3c(F)cccc3F)nc12 (stereo not drawn) [n2] | 73.4% |

Same assay, conditions: MRC-5, 1 μM, 48 h

| Compound | inhibition of cellular viability [%] |
| --- | --- |
| O=C1CSC(c2c(F)cccc2Cl)N1c1nc2cccc(Cl)c2s1 (stereo not drawn) [a2] | 95.5 |
| O=C1CSC(c2ccc(F)cc2)N1c1nc2ccc(Cl)cc2s1 (stereo not drawn) [c1] | 36.1 |
| N#Cc1ccc2nc(N3C(=O)CSC3c3c(F)cccc3Cl)sc2c1 (stereo not drawn) [k3] | 100 |
| O=C1CSC(c2ccc(Br)cc2)N1c1nc2ccc(C34CC5CC(CC(C5)C3)C4)cc2s1 (stereo not drawn) [m11, 3-(6-(adamantan-1-yl)benzo[d]thiazol-2-yl)-2-(4-bromophenyl)thiazolidin-4-one] | 89.4 |
| Cc1cc(C23CC4CC(CC(C4)C2)C3)cc2sc(N3C(=O)CSC3c3c(F)cccc3F)nc12 (stereo not drawn) [n2] | 90.7 |

Same assay, conditions: MRC-5, 10 μM, 48 h

| Compound | inhibition of cellular viability [%] |
| --- | --- |
| O=C1CSC(c2c(F)cccc2Cl)N1c1nc2cccc(Cl)c2s1 (stereo not drawn) [a2] | 100 |
| O=C1CSC(c2ccc(F)cc2)N1c1nc2ccc(Cl)cc2s1 (stereo not drawn) [c1] | 80.3 |
| N#Cc1ccc2nc(N3C(=O)CSC3c3c(F)cccc3Cl)sc2c1 (stereo not drawn) [k3] | 100 |
| O=C1CSC(c2ccc(Br)cc2)N1c1nc2ccc(C34CC5CC(CC(C5)C3)C4)cc2s1 (stereo not drawn) [m11, 3-(6-(adamantan-1-yl)benzo[d]thiazol-2-yl)-2-(4-bromophenyl)thiazolidin-4-one] | 100 |
| Cc1cc(C23CC4CC(CC(C4)C2)C3)cc2sc(N3C(=O)CSC3c3c(F)cccc3F)nc12 (stereo not drawn) [n2] | 100 |

System: not given
Assay: not given
Settings: not given

| Compound | melting point [°C] |
| --- | --- |
| O=C1CSC(c2ccc(Br)cc2)N1c1nc2ccc(C34CC5CC(CC(C5)C3)C4)cc2s1 (stereo not drawn) [m11, 3-(6-(adamantan-1-yl)benzo[d]thiazol-2-yl)-2-(4-bromophenyl)thiazolidin-4-one] | 275 to 276 |

Target: SARS-CoV-2 3CL protease (Severe acute respiratory syndrome coronavirus 2, UniProt P0DTD1)
Assay: biochemical
Format: biochemical
Settings: not given

| Compound | inhibitory activity on main protease (in words) |
| --- | --- |
| O=C1CSC(c2ccc(O)cc2)N1c1nc2ccc(Cl)cc2s1 (stereo not drawn) [c5] | inactive |
| O=C1CSC(c2ccc(Br)cc2)N1c1nc2ccc(C34CC5CC(CC(C5)C3)C4)cc2s1 (stereo not drawn) [m11, 3-(6-(adamantan-1-yl)benzo[d]thiazol-2-yl)-2-(4-bromophenyl)thiazolidin-4-one] | moderate activity |

Same assay, conditions: 50 μM compound

| Compound | % Inhibition at 50 μM [%] | inhibition at 50 µM [%] |
| --- | --- | --- |
| 3-(5,6-dichlorobenzo[d]thiazol-2-yl)-2-(4-fluorophenyl)thiazolidin-4-one [a3] | 0 | – |
| O=C1CSC(c2c(F)cccc2F)N1c1nc2cccc(Cl)c2s1 (stereo not drawn) [a1] | – | 0 |
| O=C1CSC(c2c(F)cccc2Cl)N1c1nc2cccc(Cl)c2s1 (stereo not drawn) [a2] | – | 91.3 |
| O=C1CSC(c2ccc(F)cc2)N1c1nc2ccc(F)cc2s1 (stereo not drawn) [b1] | – | 0 |
| O=C1CSC(c2ccc(F)cc2)N1c1nc2ccc(Cl)cc2s1 (stereo not drawn) [c1] | – | 88 |
| O=C1CSC(c2ccc(O)cc2)N1c1nc2ccc(Cl)cc2s1 (stereo not drawn) [c5] | – | 7.87 |
| O=C1CSC(c2ccc(F)cc2)N1c1nc2c(Cl)cccc2s1 (stereo not drawn) [d1] | – | 6.72 |
| COc1cccc2sc(N3C(=O)CSC3c3ccc([N+](=O)[O-])cc3)nc12 (stereo not drawn) [e2] | – | 31.3 |
| O=C1CSC(c2ccc(F)cc2)N1c1nc2ccc(OC(F)(F)F)cc2s1 (stereo not drawn) [h6] | – | 25.2 |
| O=C1CSC(c2ccc(Cl)cc2)N1c1nc2ccc(OC(F)(F)F)cc2s1 (stereo not drawn) [h8] | – | 3.04 |
| N#Cc1ccc2nc(N3C(=O)CSC3c3c(F)cccc3Cl)sc2c1 (stereo not drawn) [k3] | – | 100 |
| O=C1CSC(c2c(F)cccc2Cl)N1c1nc2ccc(C34CC5CC(CC(C5)C3)C4)cc2s1 (stereo not drawn) [m2] | – | 2.79 |
| O=C1CSC(c2ccc(Br)cc2)N1c1nc2ccc(C34CC5CC(CC(C5)C3)C4)cc2s1 (stereo not drawn) [m11, 3-(6-(adamantan-1-yl)benzo[d]thiazol-2-yl)-2-(4-bromophenyl)thiazolidin-4-one] | – | 45 |
| Cc1cc(C23CC4CC(CC(C4)C2)C3)cc2sc(N3C(=O)CSC3c3c(F)cccc3F)nc12 (stereo not drawn) [n2] | – | 100 |

Same assay, conditions: dose range 0.005 to 50 µM

| Compound | IC50 [µM] |
| --- | --- |
| 3-(5,6-dichlorobenzo[d]thiazol-2-yl)-2-(4-fluorophenyl)thiazolidin-4-one [a3] | > 50 |
| O=C1CSC(c2c(F)cccc2F)N1c1nc2cccc(Cl)c2s1 (stereo not drawn) [a1] | > 50 |
| O=C1CSC(c2ccc(F)cc2)N1c1nc2ccc(F)cc2s1 (stereo not drawn) [b1] | > 50 |
| O=C1CSC(c2ccc(F)cc2)N1c1nc2ccc(Cl)cc2s1 (stereo not drawn) [c1] | 4.74 |
| O=C1CSC(c2ccc(O)cc2)N1c1nc2ccc(Cl)cc2s1 (stereo not drawn) [c5] | > 50 |
| O=C1CSC(c2ccc(F)cc2)N1c1nc2c(Cl)cccc2s1 (stereo not drawn) [d1] | > 50 |
| COc1cccc2sc(N3C(=O)CSC3c3ccc([N+](=O)[O-])cc3)nc12 (stereo not drawn) [e2] | > 50 |
| O=C1CSC(c2ccc(F)cc2)N1c1nc2ccc(OC(F)(F)F)cc2s1 (stereo not drawn) [h6] | > 50 |
| O=C1CSC(c2ccc(Cl)cc2)N1c1nc2ccc(OC(F)(F)F)cc2s1 (stereo not drawn) [h8] | > 50 |
| N#Cc1ccc2nc(N3C(=O)CSC3c3c(F)cccc3Cl)sc2c1 (stereo not drawn) [k3] | 0.01 |
| O=C1CSC(c2c(F)cccc2Cl)N1c1nc2ccc(C34CC5CC(CC(C5)C3)C4)cc2s1 (stereo not drawn) [m2] | > 50 |
| O=C1CSC(c2ccc(Br)cc2)N1c1nc2ccc(C34CC5CC(CC(C5)C3)C4)cc2s1 (stereo not drawn) [m11, 3-(6-(adamantan-1-yl)benzo[d]thiazol-2-yl)-2-(4-bromophenyl)thiazolidin-4-one] | > 50 |
| Cc1cc(C23CC4CC(CC(C4)C2)C3)cc2sc(N3C(=O)CSC3c3c(F)cccc3F)nc12 (stereo not drawn) [n2] | 9.98 |

System: feline infectious peritonitis
Assay: not given
Settings: upon treatment of FIP in cats; cited from earlier work

| Compound | side effects |
| --- | --- |
| CC(C)CC(NC(=O)OCc1ccccc1)C(=O)NC(CC1CCNC1=O)C(O)S(=O)(=O)O (stereo not drawn) [GC376] | subcutaneous fibrosis, transient stinging at the injection sites, hair loss, and abnormal eruption of permanent teeth in juvenile cats |
